Test results: publication PMC4750397 (Clinical lung cancer, 2015)
Marks after values point to notes of the source that are not given here. Blank lines part the entries; values can stand above or below the molecule they belong to.

How the values were obtained:
[1] = test system: patients with advanced nsNSCLCs; conditions: single agent, ref [7], cited from earlier work
[2] = Plasma pharmacokinetics of regorafenib, M-2 and M-5; assay type: in vivo, human; conditions: for AUC(0–24)md Ratio (90% CI) / Cmax,md Ratio (90% CI): Ratio = C2D1:C1D21; for AUC(0–24)md Ratio (90% CI) / Cmax,md Ratio (90% CI) / tmax,md: n = 6; for Tmax: human, plasma, oral; for tmax,md: median (range printed in cell); for coefficient of variation (CV) in AUC and Cmax: high variability, Table 3A
human xenograft models = conditions: greater potency than sorafenib; ref [4], [22]; cited from earlier work
patients with NSCLCs = conditions: sunitinib added to cisplatin and pemetrexed; ref [20]; cited from earlier work
[3] = Plasma pharmacokinetics of pemetrexed; assay type: in vivo, human
[4] = C2 D1, following cisplatin and pemetrexed
[5] = Cycle 1, Day 1 vs Cycle 2, Day 1

SMILES: CNC(=O)c1cc(Oc2ccc(NC(=O)Nc3ccc(Cl)c(C(F)(F)F)c3)c(F)c2)ccn1 [Regorafenib, reference compound]
patients with stable disease for ≥12 weeks ([1]; 4 of 18 evaluable patients): 22%
Grade 4 or 5 toxicities ([1]; 23 patients): no Grade 4 or 5 toxicities were observed
progression-free survival of one patient ([1]; one patient): ~40 weeks
tumor reduction in one patient ([1]; two non-consecutive measurements): > 30%
Mean AUC(0–24)md and Cmax,md on both days (in words) ([2]; C2 D1 vs C1 D21): comparable
AUC(0–24)md Ratio (90% CI) [2]: 0.93 (0.77–1.12)
Cmax,md Ratio (90% CI) [2]: 1.03 (0.70–1.51)
Tmax [2]: 4 h
Tmax ([2]; 60 mg/day): 4 h
potency in human xenograft models relative to sorafenib (human xenograft models): ~ 3 times

SMILES: CCN(CC)CCNC(=O)c1c(C)[nH]c(/C=C2\C(=O)Nc3ccc(F)cc32)c1C [sunitinib]
myelosuppression (patients with NSCLCs): substantial myelosuppression

SMILES: Nc1nc2[nH]cc(CCc3ccc(C(=O)N[C@@H](CCC(=O)O)C(=O)O)cc3)c2c(=O)[nH]1 [Pemetrexed]
mean AUC on both days (in words) [3, 5]: comparable
mean pemetrexed concentration, before vs after regorafenib (in words) [3, 5]: no difference
Cmax after regorafenib (in words) ([3]; Cycle 2, Day 1 vs Cycle 1, Day 1): slightly increased
AUC(0–infinity) Ratio (90% CI) ([3]; Ratio = C2D1:C1D1, n = 8): 1.05 (0.96–1.16)
Cmax Ratio (90% CI) ([3]; Ratio = C2D1:C1D1, n = 8): 1.20 (1.05–1.35)

Second part, the molecule after the results:

tmax,md ([2]; C1 D21, regorafenib alone): 4.0 (2–24 ^a) hours
tmax,md [2, 4]: 5.0 (0–6.25 ^a) hours
mean AUC(0–24)md lower following the pemetrexed and cisplatin treatment ([2]; C2 D1 vs C1 D21): 48%
mean Cmax,md lower following the pemetrexed and cisplatin treatment ([2]; C2 D1 vs C1 D21): 38%
AUC(0–24)md Ratio (90% CI) [2]: 0.52 (0.44–0.61)
Cmax,md Ratio (90% CI) [2]: 0.62 (0.46–0.83)
coefficient of variation (CV) in AUC and Cmax [2]: > 75%
SMILES: CNC(=O)c1cc(Oc2ccc(NC(=O)Nc3ccc(Cl)c(C(F)(F)F)c3)c(F)c2)cc[n+]1[O-] [M-2]

tmax,md ([2]; C1 D21, regorafenib alone): 16.0 (4–24 ^a) hours
tmax,md [2, 4]: 5.0(0–6.25 ^a) hours
Mean AUC(0–24)md and Cmax,md on both days (in words) ([2]; C2 D1 vs C1 D21): comparable
AUC(0–24)md Ratio (90% CI) [2]: 0.84 (0.67–1.06)
Cmax,md Ratio (90% CI) [2]: 0.97 (0.78–1.20)
coefficient of variation (CV) in AUC and Cmax [2]: > 150%
SMILES: NC(=O)c1cc(Oc2ccc(NC(=O)Nc3ccc(Cl)c(C(F)(F)F)c3)c(F)c2)cc[n+]1[O-] [M-5]
